Assay results from DBAASP.
In brackets after ≈: the same amount, converted by molar mass.

Legend:
Assay in all cases: ≥ marks a high value that may be exact or a test limit, other limits are often not marked, values filed in µg/mL are converted to µM
[1] = tested on: Streptococcus sobrinus ATCC 6715
[2] = tested on: Streptococcus sanguinis ATCC 10556
[3] = tested on: Streptococcus mutans UA159
[4] = tested on: Pseudomonas aeruginosa ATCC 27853
[5] = tested on: Enterobacter cloacae NHTCC 53001
[6] = tested on: Staphylococcus aureus NCTC 8325
[7] = tested on: Escherichia coli ATCC 25922
[8] = tested on: Staphylococcus epidermidis RP62A
[9] = tested on: Enterococcus faecalis ATCC 29212
[10] = tested on: Klebsiella pneumoniae KK3 9904
[11] = tested on: Proteus mirabilis ATCC 25933
[12] = tested on: Candida albicans ATCC 90028
[13] = tested on: Enterococcus faecalis f43559
[14] = tested on: Staphylococcus aureus C623
[15] = tested on: Klebsiella pneumoniae ESBL 63575
[16] = tested on: Escherichia coli ESBL 64771
[17] = tested on: Enterococcus faecalis W61950
[18] = tested on: Enterococcus faecium mic80
[19] = tested on: Pseudomonas aeruginosa 198
[20] = tested on: Stenotrophomonas maltophilia ATCC 13637
[21] = tested on: Staphylococcus aureus ATCC 25923
[22] = tested on: Pseudomonas aeruginosa H1027
[23] = tested on: Pseudomonas aeruginosa 213
[24] = tested on: Enterococcus faecium t62764
Pseudomonas aeruginosa 9 = tested on: Pseudomonas aeruginosa 9
[25] = tested on: Pseudomonas aeruginosa LES400
[26] = tested on: Pseudomonas aeruginosa PAO1 H103
[27] = tested on: Enterobacter cloacae 218R
[28] = tested on: Escherichia coli ESBL 63103
[29] = tested on: Klebsiella pneumoniae ESBL 61962
[30] = tested on: Pseudomonas aeruginosa H1030
[31] = tested on: Staphylococcus saprophyticus
[32] = tested on: Escherichia coli CCT 1371
[33] = tested on: Staphylococcus aureus ATCC 6538
[34] = tested on: Staphylococcus epidermidis
[35] = tested on: Pseudomonas aeruginosa ATCC 15442
Candida albicans = tested on: Candida albicans
[36] = tested on: Bacillus subtilis CCT 2471
[37] = tested on: Enterococcus faecium E007
[38] = tested on: Staphylococcus aureus ATCC 29231
[39] = tested on: Pseudomonas aeruginosa PA14
[40] = tested on: Acinetobacter baumannii ATCC 7978
[41] = tested on: Candida albicans ATCC 10231

In the case of `NCCCC[C@H](NC(=O)[C@H](CCCCN)NC(=O)[C@H](Cc1ccccc1)NC(=O)[C@H](Cc1ccccc1)NC(=O)[C@H](CCCCN)NC(=O)[C@H](CCCCN)NC(=O)[C@H](Cc1ccccc1)NC(=O)[C@H](Cc1ccccc1)NC(=O)[C@H](CCCCN)NC(=O)[C@@H](N)Cc1ccccc1)C(=O)N[C@@H](Cc1c[nH]c2ccccc12)C(=O)O` [FKFFKKFFKKW], the MIC [1] was 10.1 µM (≈ 16 µg/mL), the MIC [2] was 20.2 µM (≈ 32 µg/mL) and the MIC [3] was 10.1 µM (≈ 16 µg/mL).
In the case of `CC(C)C[C@H](NC(=O)[C@H](C)NC(=O)[C@H](CCCCN)NC(=O)[C@H](C)NC(=O)[C@H](C)NC(=O)CNC(=O)[C@H](CCCCN)NC(=O)[C@H](CC(C)C)NC(=O)[C@H](CC(C)C)NC(=O)[C@H](CC(=O)O)NC(=O)[C@H](CCCCN)NC(=O)[C@H](Cc1ccccc1)NC(=O)CN)C(=O)N[C@H](C(=O)N[C@@H](CCCCN)C(=O)N[C@H](C(=O)N[C@H](C(=O)N[C@@H](CC(C)C)C(=O)N[C@@H](Cc1ccccc1)C(=O)O)C(C)C)[C@@H](C)O)C(C)C` [GFKDLLKGAAKALVKTVLF], the MIC [4] was 50 µM (≈ 101 µg/mL), the MIC [5] was 13 µM (≈ 26.3 µg/mL) and the MIC [6] was at least 50 µM. It also gave an MIC [7] of 6 µM (≈ 12.1 µg/mL), an MIC [8] of 25 µM (≈ 50.5 µg/mL) and an MIC [9] of over 100 µM. For the same compound, the MIC [10] was 25 µM (≈ 50.5 µg/mL), the MIC [11] was at least 100 µM and the MIC [12] was at least 100 µM.
`CC[C@H](C)[C@H](NC(=O)CN)C(=O)N[C@@H](CCCCN)C(=O)N[C@@H](CC(=O)O)C(=O)N[C@@H](Cc1c[nH]c2ccccc12)C(=O)N[C@H](C(=O)N[C@@H](CCCCN)C(=O)NCC(=O)N[C@@H](C)C(=O)N[C@@H](C)C(=O)N[C@@H](CCCCN)C(=O)N[C@@H](CCCCN)C(=O)N[C@@H](CC(C)C)C(=O)N[C@H](C(=O)N[C@@H](CCCCN)C(=O)N[C@H](C(=O)N[C@H](C(=O)N[C@@H](C)C(=O)N[C@@H](CO)C(=O)N[C@@H](Cc1cnc[nH]1)C(=O)N[C@H](C(=O)N[C@@H](C)C(=O)N[C@@H](CC(N)=O)C(=O)N[C@@H](CCC(N)=O)C(=O)O)[C@@H](C)CC)C(C)C)[C@@H](C)O)[C@@H](C)CC)[C@@H](C)CC` [GIKDWIKGAAKKLIKTVASHIANQ] showed an MIC [4] of 13 µM (≈ 33.7 µg/mL), an MIC [5] of 6 µM (≈ 15.5 µg/mL) and an MIC [6] of at least 50 µM. For the same compound, the MIC [7] was 6 µM (≈ 15.5 µg/mL), the MIC [8] was 13 µM (≈ 33.7 µg/mL) and the MIC [9] was over 100 µM. It also gave an MIC [10] of 13 µM (≈ 33.7 µg/mL), an MIC [11] of at least 100 µM and an MIC [12] of at least 100 µM.
With `CC[C@H](C)[C@H](N)C(=O)N[C@@H](Cc1c[nH]c2ccccc12)C(=O)N[C@@H](Cc1c[nH]c2ccccc12)C(=O)N[C@@H](CCCCN)C(=O)N[C@@H](Cc1c[nH]c2ccccc12)C(=O)N[C@@H](CCCN=C(N)N)C(=O)N[C@@H](CCCN=C(N)N)C(=O)N[C@@H](Cc1c[nH]c2ccccc12)C(=O)N[C@H](C(=O)O)C(C)C` [IWWKWRRWV] the MIC [13] was 24 µM (≈ 34 µg/mL), the MIC [14] was 1.48 µM (≈ 2.1 µg/mL) and the MIC [15] was 6 µM (≈ 8.5 µg/mL). The MIC [16] was 2.97 µM (≈ 4.2 µg/mL), the MIC [17] was 24 µM (≈ 34 µg/mL) and the MIC [18] was 2.97 µM (≈ 4.2 µg/mL). The MIC [19] was 6 µM (≈ 8.5 µg/mL), the MIC [20] was 0.777 µM (≈ 1.1 µg/mL) and the MIC [21] was 1.48 µM (≈ 2.1 µg/mL). It also gave an MIC [22] of 2.97 µM (≈ 4.2 µg/mL), an MIC [23] of 24 µM (≈ 34 µg/mL) and an MIC [24] of 1.48 µM (≈ 2.1 µg/mL). The MIC (Pseudomonas aeruginosa 9) was 24 µM (≈ 34 µg/mL), the MIC [25] was 6 µM (≈ 8.5 µg/mL) and the MIC [9] was 12 µM (≈ 17 µg/mL). For the same compound, the MIC [26] was 2.97 µM (≈ 4.2 µg/mL), the MIC [27] was 2.97 µM (≈ 4.2 µg/mL) and the MIC [28] was 12 µM (≈ 17 µg/mL). The MIC [29] was at least 48 µM and the MIC [30] was 24 µM (≈ 34 µg/mL).
`CC[C@H](C)[C@H](NC(=O)CNC(=O)[C@H](CCCCN)NC(=O)[C@H](C)NC(=O)[C@@H](NC(=O)[C@H](CCCCN)NC(=O)[C@@H](N)CC(C)C)[C@@H](C)CC)C(=O)N[C@H](C(=O)N[C@@H](CCCCN)C(=O)N[C@@H](CO)C(=O)N[C@@H](CC(C)C)C(=O)O)[C@@H](C)CC` [LKIAKGIIKSL] gave an MIC [31] of at least 84.5 µM, an MIC [32] of at least 84.5 µM and an MIC [33] of over 84.5 µM. For the same compound, the MIC [34] was at least 84.5 µM, the MIC [35] was at least 84.5 µM and the MIC (Candida albicans) was over 84.5 µM. The MIC [7] was over 84.5 µM, the MIC [21] was over 84.5 µM and the MIC [36] was at least 84.5 µM.
`CC[C@H](C)[C@H](NC(=O)[C@H](CCCCN)NC(=O)[C@H](CCCCN)NC(=O)[C@@H](N)CC(C)C)C(=O)NCC(=O)N[C@@H](CCCCN)C(=O)N[C@@H](CCCCN)C(=O)N[C@H](C(=O)N[C@@H](Cc1c[nH]c2ccccc12)C(=O)N[C@@H](CCCN=C(N)N)C(=O)N[C@H](C(=O)NCC(=O)O)C(C)C)[C@@H](C)CC` [LKKIGKKIWRVG] showed an MIC [37] of at least 89.8 µM, an MIC [38] of at least 89.8 µM and an MIC [39] of at least 89.8 µM. The MIC [40] was at least 89.8 µM.
`CC[C@H](C)[C@H](NC(=O)[C@H](CCCCN)NC(=O)[C@H](CCCCN)NC(=O)[C@H](Cc1c[nH]c2ccccc12)NC(=O)[C@@H](NC(=O)[C@H](CCCCN)NC(=O)[C@H](Cc1c[nH]c2ccccc12)NC(=O)[C@@H](N)CC(C)C)[C@@H](C)CC)C(=O)N[C@@H](Cc1c[nH]c2ccccc12)C(=O)N[C@@H](CCCN=C(N)N)C(=O)N[C@H](C(=O)N[C@@H](Cc1c[nH]c2ccccc12)C(=O)N[C@@H](Cc1c[nH]c2ccccc12)C(=O)N[C@@H](CC(N)=O)C(=O)N[C@@H](Cc1c[nH]c2ccccc12)C(=O)N[C@@H](CCCN=C(N)N)C(=O)O)C(C)C` [LWKIWKKIWRVWWNWR] showed an MIC [37] of at least 53.7 µM, an MIC [41] of 53.7 µM (≈ 128 µg/mL) and an MIC [38] of 13.1 µM (≈ 31.3 µg/mL). The MIC [39] was 26.8 µM (≈ 64 µg/mL).
